Structures are written as SMILES.

One experiment has as its target T1, rat NaPi-2b (Rattus norvegicus, UniProt Q9JJ09).
T1 construct: expressed in transfected cells; host or cells: Xenopus oocytes injected with cRNA
T1 sequence (Q9JJ09 1-695): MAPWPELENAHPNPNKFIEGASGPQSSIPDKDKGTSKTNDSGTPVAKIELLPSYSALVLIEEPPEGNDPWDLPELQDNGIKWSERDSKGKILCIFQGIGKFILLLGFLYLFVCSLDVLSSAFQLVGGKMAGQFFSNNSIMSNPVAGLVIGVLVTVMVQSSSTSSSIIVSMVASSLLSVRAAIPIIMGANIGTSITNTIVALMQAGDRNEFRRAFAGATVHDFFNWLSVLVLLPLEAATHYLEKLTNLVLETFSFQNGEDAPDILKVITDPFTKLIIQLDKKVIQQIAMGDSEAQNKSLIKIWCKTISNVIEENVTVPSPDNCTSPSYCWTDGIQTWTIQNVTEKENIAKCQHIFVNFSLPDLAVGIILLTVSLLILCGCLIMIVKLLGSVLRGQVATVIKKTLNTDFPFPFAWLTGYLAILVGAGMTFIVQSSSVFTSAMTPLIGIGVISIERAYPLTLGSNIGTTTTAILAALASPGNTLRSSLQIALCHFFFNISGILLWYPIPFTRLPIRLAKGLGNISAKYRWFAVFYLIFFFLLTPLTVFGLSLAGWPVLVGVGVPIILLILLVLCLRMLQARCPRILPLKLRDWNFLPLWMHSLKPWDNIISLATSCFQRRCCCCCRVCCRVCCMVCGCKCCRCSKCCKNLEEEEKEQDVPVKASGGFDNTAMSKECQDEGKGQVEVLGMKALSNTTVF
In words: Sodium-dependent phosphate uptake of Xenopus oocytes which expressed NaPi-2b (32P). The settings on record: Xenopus oocytes expressing rat NaPi-2b, 32P radioactive phosphorus; read-out: IC50 (phosphate uptake inhibitory activity). In kind it is cell-based. In outline:
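Inhibition at 300 μM and 100 μM was read off one inhibition curve of 32P phosphate uptake. Uptake was measured in Xenopus oocytes cultured 2 days after injection of cRNA for cloned rat NaPi-2b.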
Broadly, the IC50 is the midpoint of a concentration-inhibition curve. For `Cc1cccc(/C=N/NC(=O)c2cc(Cl)ccc2NC(=O)c2cccnc2)c1` [Compound 186, N-[4-Chloro-2-(3-methyl-benzylidene-hydrazinocarbonyl)-phenyl]-nicotinamide], the IC50 turned out to be 10.1 µM. Regarding `Cc1ccc(CNNC(=O)c2cc(Cl)ccc2NC(=O)c2cccc(CSCCO)c2)cc1C` [Compound 492, N-{4-Chloro-2-[N′-(3,4-dimethyl-benzyl)-hydrazinocarbonyl]-phenyl}-3-(2-hydroxy-ethylsulfanylmethyl)-benzamide], the IC50 is < 3 µM. In the case of `COc1ccc(/C=N/NC(=O)c2cc(OC)ccc2NC(=O)c2cccc(CSCC(O)CO)c2)cc1` (stereo not shown) [Compound 1021, 3-(2,3-Dihydroxy-propylsulfanylmethyl)-N-[4-methoxy-2-(4-methoxy-benzylidene-hydrazinocarbonyl)-phenyl]-benzamide], the IC50 is 5.57 µM.

As to `Cc1ccc(/C=N/NC(=O)c2cc(Br)ccc2NC(=O)c2ccc(CNCCN3CCOCC3)cc2)cc1` [Compound 282, N-[4-Bromo-2-(4-methyl-benzylidene-hydrazinocarbonyl)-phenyl]-4-[(2-morpholin-4-yl-ethylamino)-methyl]-benzamide], the IC50 was 6.71 µM. `CN(C)CCn1nnnc1SCc1cccc(C(=O)Nc2ccc(Cl)cc2C(=O)N/N=C/c2cccc(F)c2)c1` [Compound 462, N-[4-Chloro-2-(3-fluoro-benzylidene-hydrazinocarbonyl)-phenyl]-3-[1-(2-dimethylamino-ethyl)-1H-tetrazol-5-ylsulfanylmethyl]-benzamide]: the half-inhibitory concentration (IC50) is < 3 µM. Consider `Cc1cccc(/C=N/NC(=O)c2cc(Br)ccc2NC(=O)c2ccco2)c1` [Compound 153, Furan-2-carboxylic acid [4-bromo-2-(3-methyl-benzylidene-hydrazinocarbonyl)-phenyl]-amide], for which the IC50 amounted to 3.5 µM. For `Cc1ccc(/C=N/NC(=O)c2cc(N3CCCCC3)ccc2NC(=O)c2cccc(CN3CCC(O)CC3)c2)cc1C` [Compound 870, N-[2-(3,4-Dimethyl-benzylidene-hydrazinocarbonyl)-4-piperidin-1-yl-phenyl]-3-(4-hydroxy-piperidin-1-ylmethyl)-benzamide], the IC50 was found to be 0.53 µM. As to `Cc1cccc(/C=N/NC(=O)c2cc(Br)ccc2NC(=O)c2ccc(CN3CCC(CO)CC3)cc2)c1` [Compound 334, N-[4-Bromo-2-(3-methyl-benzylidene-hydrazinocarbonyl)-phenyl]-4-(4-hydroxymethyl-piperidin-1-ylmethyl)-benzamide], the IC50 was 7.69 µM. `Cc1ccc(/C=N/NC(=O)c2c(NC(=O)c3cccc(CN4CCC(CO)CC4)c3)sc3c2CCC3)cc1` [Compound 817, 3-(4-Hydroxymethyl-piperidin-1-ylmethyl)-N-[3-(4-methyl-benzylidene-hydrazinocarbonyl)-5,6-dihydro-4H-cyclopenta[b]thiophen-2-yl]-benzamide]: the IC50 stood at 36.1 µM. The same measure, in the same setting: the same measure for `Cc1ccc(/C=N/NC(=O)c2cc(Br)ccc2NC(=O)c2cccc(CS(=O)(=O)CCO)c2)cc1` [Compound 676, N-[4-Bromo-2-(4-methyl-benzylidene-hydrazinocarbonyl)-phenyl]-3-(2-hydroxy-ethanesulfonylmethyl)-benzamide]: < 3 µM; for `O=C(Nc1ccc(Br)cc1C(=O)N/N=C/c1cccc(F)c1)c1ccno1` [Compound 510, Isoxazole-5-carboxylic acid [4-bromo-2-(3-fluoro-benzylidene-hydrazinocarbonyl)-phenyl]-amide]: 1.48 µM; for `Cc1cccc(/C=N/NC(=O)c2cc(Br)ccc2NC(=O)c2ccccn2)c1` [Compound 497, Pyridin-2-carboxylic acid [4-bromo-2-(3-methyl-benzylidene-hydrazinocarbonyl)-phenyl]-amide]: 0.51 µM.

As for `Cc1ccc(/C=N/NC(=O)c2cc(Br)ccc2NC(=O)c2ccc(CSCCCO)cc2)cc1` [Compound 274, N-[4-Bromo-2-(4-methyl-benzylidene-hydrazinocarbonyl)-phenyl]-4-(3-hydroxy-propylsulfanylmethyl)-benzamide], the 50% inhibitory concentration (IC50) stood at 1.04 µM. Take `CCN(CC)CCN(C)Cc1cccc(C(=O)Nc2cc(OCCOC)c(OCCOC)cc2C(=O)N/N=C/c2ccc(C)cc2)c1` [Compound 1029, N-[4,5-Bis-(2-methoxy-ethoxy)-2-(4-methyl-benzylidene-hydrazinocarbonyl)-phenyl]-3-{[(2-diethylamino-ethyl)-methyl-amino]-methyl}-benzamide]: the IC50 is 34.7 µM.

With `CN(C)c1ccc(/C=C/C=N/NC(=O)c2ccccc2NC(=O)c2cccnc2)cc1` [Compound 358, N-{2-[3-(4-Dimethylamino-phenyl)-allylidene-hydrazinocarbonyl]-phenyl}-nicotinamide], the half-maximal inhibitory concentration (IC50) is 54.1 µM. With `Cc1cccc(/C=N/NC(=O)c2cc(Br)ccc2NC(=O)c2cccc(CSc3ccncc3)c2)c1` [Compound 197, N-[4-Bromo-2-(3-methyl-benzylidene-hydrazinocarbonyl)-phenyl]-3-(pyridin-4-ylsulfanylmethyl)-benzamide], the concentration for half-maximal inhibition (IC50) was 4.87 µM. Still for that read-out and setting: in the case of `Cc1ccc(/C=N/NC(=O)c2ccccc2NC(=O)c2ccccc2F)cc1` [Compound 40, 2-Fluoro-N-[2-(4-methyl-benzylidene-hydrazinocarbonyl)-phenyl]-benzamide] it was 2.03 µM. Still for that read-out and setting: in the case of `O=C(Nc1sc2c(c1C(=O)N/N=C/c1cccc(F)c1)CCC2)c1cccc(CN2CCC(CO)CC2)c1` [Compound 819, N-[3-(3-Fluoro-benzylidene-hydrazinocarbonyl)-5,6-dihydro-4H-cyclopenta[b]thiophen-2-yl]-3-(4-hydroxymethyl-piperidin-1-ylmethyl)-benzamide] it was 5.95 µM. Consider `COc1ccccc1/C=N/NC(=O)c1ccccc1NC(=O)c1ccc(OC)c(OC)c1` [Compound 4, 3,4-Dimethoxy-N-[2-(2-methoxy-benzylidene-hydrazinocarbonyl)-phenyl]-benzamide], for which the IC50 came out at 79.9 µM.

Regarding `COc1ccc(C(=O)Nc2cc(Cl)ccc2C(=O)N/N=C/c2ccc(C)cc2)cc1OC` [Compound 74, N-[5-Chloro-2-(4-methyl-benzylidene-hydrazinocarbonyl)-phenyl]-3,4-dimethoxy-benzamide], the IC50 was determined as 2.15 µM. `O=C(Nc1ccc(I)cc1C(=O)N/N=C/c1ccc(Cl)c(C(F)(F)F)c1)c1cccc(CN2CCC(N3CCCCC3)CC2)c1` [Compound 487, 3-[1,4′]Bipiperidinyl-1′-ylmethyl-N-[2-(4-chloro-3-trifluoromethyl-benzylidene-hydrazinocarbonyl)-4-iodo-phenyl]-benzamide]: the IC50 was < 3 µM.

As to `COc1ccc(C(=O)Nc2ccccc2C(=O)N/N=C/c2ccc(Cl)c(C(F)(F)F)c2)cc1OC` [Compound 41, N-[2-(4-Chloro-3-trifluoromethyl-benzylidene-hydrazinocarbonyl)-phenyl]-3,4-dimethoxy-benzamide], the half-maximal inhibitory concentration (IC50) was 2.43 µM.

For the compound `CC(O)CN(Cc1cccc(C(=O)Nc2sccc2C(=O)N/N=C/c2cccc(F)c2)c1)CC(C)O` (stereo not shown) [Compound 673, 3-{[Bis-(2-hydroxy-propyl)-amino]-methyl}-N-[3-(3-fluoro-benzylidene-hydrazinocarbonyl)-thiophen-2-yl]-benzamide], the IC50 was determined as 10.1 µM. As for `COc1ccc(NC(=O)c2cccc(CSCC(O)CO)c2)c(C(=O)N/N=C/c2ccc(C)c(C)c2)c1` (stereo not shown) [Compound 1019, 3-(2,3-Dihydroxy-propylsulfanylmethyl)-N-[2-(3,4-dimethyl-benzylidene-hydrazinocarbonyl)-4-methoxy-phenyl]-benzamide], the IC50 was 0.41 µM. Regarding `CCSCCNCc1ccc(C(=O)Nc2ccc(Br)cc2C(=O)N/N=C/c2ccc(Cl)c(C(F)(F)F)c2)cc1` [Compound 769, N-[4-Bromo-2-(4-chloro-3-trifluoromethyl-benzylidene-hydrazinocarbonyl)-phenyl]-4-[(2-ethylsulfanyl-ethylamino)-methyl]-benzamide], the IC50 is 4.44 µM. Take `Cc1cccc(/C=N/NC(=O)c2cc(Cl)ccc2NC(=O)c2ccc(CN(C)CCO)cc2)c1` [Compound 414, N-[4-Chloro-2-(3-methyl-benzylidene-hydrazinocarbonyl)-phenyl]-4-{[(2-hydroxy-ethyl)-methyl-amino]-methyl}-benzamide]: the 50% inhibitory concentration (IC50) is < 3 µM.

The experiment is the same for the next values; noted with them: phosphate uptake, oocytes expressing rat NaPi-2b; 300 μM, determined from inhibition curve.
By inhibition is commonly meant the share of the control response that was lost under treatment. A lower inhibition goes with a weak effect. `O=C(Nc1ccc(Br)cc1C(=O)N/N=C/c1ccc(F)cc1)c1ccc(CN2CCN(c3ccccn3)CC2)cc1` [Compound 774, N-[4-Bromo-2-(4-fluoro-benzylidene-hydrazinocarbonyl)-phenyl]-4-(4-pyridin-2-yl-piperazin-1-ylmethyl)-benzamide] gave an inhibition at 300 µM of 58.9%. As to `O=C(Nc1ccccc1C(=O)N/N=C/c1cccc(F)c1)c1ccccc1F` [Compound 237, 2-Fluoro-N-[2-(3-fluoro-benzylidene-hydrazinocarbonyl)-phenyl]-benzamide], 300 µM produced 33.1% inhibition.

Source of the values: patent US8134015B2, “Compound inhibiting in vivo phosphorous transport and medicine containing the same” (Kyowa Hakko Kirin Co., Ltd., priority 2003, dated 2012).
